Experimental data taken from patent US5518737A, “Peroral drug delivery system” (priority 1991, dated 1996).
Structures can show the parent of a compound that is named as a salt. Where two headings read alike, the source gives them in different places.

Assays:
[1] = Release of timolol from silicone microspheres (rotating bottle method); type: physicochemical; conditions: for release of timolol from silicone microspheres after 1 hour: pH 7.4, 37° C., 100 mg microspheres
Method: In silicone microspheres, timolol maleate was used as a model drug and sodium phosphate and Tris buffer as release-controlling adjuvants. Spray-dried drug and adjuvants were either simply mixed as power mixtures or they were spray dried together. To prepare silicone microspheres, the drug (2-20 wt %) and, if present, pH-adjusting agent (0-10 wt %) were mixed with the silicone elastomer (an amine resistant Dow Corning X7-3012 elastomer), and the curing agent was added. One part of the curing agent is mixed in ten parts of the polymer. Vulcanization of the X7-3012 elastomers is based on a platinum catalyzed addition (hydrosilylation) reaction. Two grams of the drug-polymer mixture was dispersed in 35 grams of liquid paraffin using an overhead stirrer at 190 rpm and 22° C. The temperature was raised to 50° C. in 1 hour. After 3 hours, the heating was stopped, and the mixture gradually cooled back to 22° C. […] Microparticles were separated from paraffin by filtration, washed with n-hexane and dried at room temperature. The mean particle size of the microspheres was 150±50 μm (mean±SD) (FIG. 14) and the entrapment efficiency of timolol maleate was 60-75%. Release of timolol from the silicone microspheres was studied using the rotating bottle method (NF XIV) in pH 7.4 phosphate buffer at 37° C. The volume of dissolution medium was 3 ml and the amount of microspheres 100 mg. The release timolol was analysed using reverse phase HPLC at 294 nm.

[2] = physchem; conditions: buffer, pH 7.3, aqueous buffer
Method: Solubility of propranolol hydrochloride in buffer solutions at 34° C. was investigated by shaking propranolol hydrochloride suspension in the solvent. After equilibration, the saturated solutions were filtered and the concentration of propranolol in the filtrates was assayed by HPLC as described above. […] Each experiment was repeated five times.

[3] = membranes incubated at pH 7.4 or pH 9.0 propranolol hydrochloride solutions prior to device preparation
Method: The thickness of the membranes was 150 μm. Solid propranolol hydrochloride (2 mg) was placed without or with pH-adjusting additives (sodium phosphate/disodium phosphate in different proportions, Tris buffer) (2 mg) on a cut piece of silicone membrane. Another silicone membrane was glued on the former so that the drug and, if present, adjuvant were encapsulated inside two membranes.
Propranolol release from the devices was studied in vitro at pH 7.4 in phosphate buffer from one side of the device in side-by-side diffusion cell. The exposed drug releasing surface was 0.7 cm^2. The released propranolol was analysed using reverse phase HPLC at 254 nm.

[4] = Dissolution rate of propranolol hydrochloride by rotating disc method; type: physicochemical; conditions: 34° C., 550 mOsm, μ=0.3
From the text: Each experiment was repeated five times.

Row | Structure (SMILES) | release of timolol from silicone microspheres after 1 hour ([1]; 2 wt % drug loading) | release relative to absence of the pH-adjusting agent ([1]; 2 wt % timolol, 1 wt % Tris) | effect on release rate of adding disodium phosphate ([1]; 2 wt % timolol, 1 wt % disodium phosphate) | release of timolol from silicone microspheres after 1 hour ([1]; 20 wt % drug loading) | release relative to absence of the pH-adjusting agent ([1]; 20 wt % timolol, 10 wt % Tris) | relationship between the release of timolol and the square root of the time elapsed ([1]; pH 7.4 phosphate buffer, 37° C.) | release of timolol after 1 hour ([1]; timolol and disodium phosphate spray dried together) | solubility [2] | initial lag time before steady drug release [3] | dissolution rate, pH 7.3 versus pH 9.4 [4] | dissolution rate ([4]; pH of dissolution medium raised from 1.6 to 7.3) | rates of propranolol release, effect of osmotic pressure (138 mOsm to 950 mOsm at pH 7.4) | rates of propranolol release, effect of osmotic pressure (295 mOsm to 960 mOsm at pH=4.6) | release profile and rate of propranolol release, effect of ionic strength (ionic strength 0.15 to 0.3) | drug release rate, effect of the surrounding pH (pH 1.6, 4.6, 7.3, 9.4)
1 | CC(C)(C)NC[C@H](O)COc1nsnc1N1CCOCC1 [timolol, timolol maleate] | 27 µg | two times faster | did not affect the release rate | 520 µg | two times faster | linear relationship | 187 µg |  |  |  |  |  |  |  | 
2 | CC(C)NCC(O)COc1cccc2ccccc12 (stereo not drawn) [propranolol, propranolol hydrochloride] |  |  |  |  |  |  |  | 94 mg/mL | possible to avoid the initial lag time | equal | increased | remained essentially constant | remained essentially constant | independent of the ionic strength of the dissolution medium | practically unaffected by the surrounding pH
